The values below come from patent US12221434B2, “Sulfonamide carboxamide compounds” (Inflazome Limited, priority 2017, dated 2025).

For assay [1], the target named is T1, NLRP3 (Homo sapiens, UniProt Q96P20). Kind of assay: THP-1 cells pyroptosis assay (LPS + nigericin, resazurin read-out). The following applies: 1 μg/ml LPS, 5 μM nigericin, NLRP3 inhibitory activity. It counts as cell-based. On the set-up: Seed THP-1 cells (25,000 cells/well) containing 1.0 μg/ml LPS; host or cells: THP-1 cells, LPS-primed, nigericin-stimulated. Here is the method:
THP-1 cells (ATCC #TIB-202) were grown in RPMI containing L-glutamine (Gibco #11835) supplemented with 1 mM sodium pyruvate (Sigma #S8636) and penicillin (100 units/ml)/streptomycin (0.1 mg/ml) (Sigma #P4333) in 10% Fetal Bovine Serum (FBS) (Sigma #F0804). The cells were routinely passaged and grown to confluency (˜10^6 cells/ml). On the day of the experiment, THP-1 cells were harvested and resuspended into RPMI medium (without FBS). The cells were then counted and viability (>90%) checked by Trypan blue (Sigma #T8154). Appropriate dilutions were made to give a concentration of 625,000 cells/ml. To this diluted cell solution was added LPS (Sigma #L4524) to give a 1 μg/ml Final Assay Concentration (FAC). 40 μl of the final preparation was aliquoted into each well of a 96-well plate. The plate thus prepared was used for compound screening.
The following method step-by-step assay was followed for compound screening. • 1. Seed THP-1 cells (25,000 cells/well) containing 1.0 μg/ml LPS in 40 μl of RPMI medium (without FBS) in 96-well, black walled, clear bottom cell culture plates coated with poly-D-lysine (VWR #734-0317) • 2. Add 5 μl compound (8 points half-log dilution, with 10 μM top dose) or vehicle (DMSO 0.1% FAC) to the appropriate wells • 3. Incubate for 3 hrs at 37° C. and 5% CO2 • 4. Add 5 μl nigericin (Sigma #N7143) (FAC 5 μM) to all wells • 5. Incubate for 1 hr at 37° C. and 5% CO2 • 6. At the end of the incubation period, spin plates at 300×g for 3 mins and remove supernatant • 7. Then add 50 μl of resazurin (Sigma #R7017) (FAC […] resazurin in RPMI medium without FBS) and incubate plates for a further 1-1.5 h at 37° C. and 5% CO2 • 8. Plates were read in an Envision reader at Ex 560 nm and Em 590 nm • 9. IC50 data is fitted to a non-linear regression equation (log inhibitor vs response-variable slope 4-parameters) 96-Well Plate Map

For assay [2], the target named is T1, NLRP3. Put plainly: Human whole blood IL1β release assay (LPS + nigericin, AlphaLisa IL-1β). Format: cell-based. On the set-up: Plate out 80 μl of whole blood containing 1 μg/ml of LPS; from tissue; host or cells: human whole blood from healthy donors (Li-heparin), LPS-primed, nigericin-stimulated. The following applies: 1 μg/ml LPS, 10 μM nigericin, IL-1β release, read-out: HWB IC50. Here is the method:
For systemic delivery, the ability to inhibit NLRP3 when the compounds are present within the bloodstream is of great importance. For this reason, the NLRP3 inhibitory activity of a number of compounds in human whole blood was investigated in accordance with the following protocol.
Human whole blood in Li-heparin tubes was obtained from healthy donors from a volunteer donor panel. • 1. Plate out 80 μl of whole blood containing 1 μg/ml of LPS in 96-well, clear bottom cell culture plate (Corning #3585) • 2. Add 10 μl compound (8 points half-log dilution with 10 μM top dose) or vehicle (DMSO 0.1% FAC) to the appropriate wells • 3. Incubate for 3 hrs at 37° C., 5% CO2 • 4. Add 10 μl nigericin (Sigma #N7143) (10 μM FAC) to all wells • 5. Incubate for 1 hr at 37° C., 5% CO2 • 6. At the end of the incubation period, spin plates at 300×g for 5 mins to pellet cells and remove 20 μl of supernatant and add to 96-well v-bottom plates for IL-1β analysis (note: these plates containing the supernatants can be stored at −80° C. to be analysed at a later date) • 7. IL-1β was measured according to the manufacturer protocol (Perkin Elmer-AlphaLisa IL-1 Kit AL220F-5000) • 8. IC50 data is fitted to a non-linear regression equation (log inhibitor vs response-variable slope 4-parameters)

T1 sequence (Q96P20 whole entry): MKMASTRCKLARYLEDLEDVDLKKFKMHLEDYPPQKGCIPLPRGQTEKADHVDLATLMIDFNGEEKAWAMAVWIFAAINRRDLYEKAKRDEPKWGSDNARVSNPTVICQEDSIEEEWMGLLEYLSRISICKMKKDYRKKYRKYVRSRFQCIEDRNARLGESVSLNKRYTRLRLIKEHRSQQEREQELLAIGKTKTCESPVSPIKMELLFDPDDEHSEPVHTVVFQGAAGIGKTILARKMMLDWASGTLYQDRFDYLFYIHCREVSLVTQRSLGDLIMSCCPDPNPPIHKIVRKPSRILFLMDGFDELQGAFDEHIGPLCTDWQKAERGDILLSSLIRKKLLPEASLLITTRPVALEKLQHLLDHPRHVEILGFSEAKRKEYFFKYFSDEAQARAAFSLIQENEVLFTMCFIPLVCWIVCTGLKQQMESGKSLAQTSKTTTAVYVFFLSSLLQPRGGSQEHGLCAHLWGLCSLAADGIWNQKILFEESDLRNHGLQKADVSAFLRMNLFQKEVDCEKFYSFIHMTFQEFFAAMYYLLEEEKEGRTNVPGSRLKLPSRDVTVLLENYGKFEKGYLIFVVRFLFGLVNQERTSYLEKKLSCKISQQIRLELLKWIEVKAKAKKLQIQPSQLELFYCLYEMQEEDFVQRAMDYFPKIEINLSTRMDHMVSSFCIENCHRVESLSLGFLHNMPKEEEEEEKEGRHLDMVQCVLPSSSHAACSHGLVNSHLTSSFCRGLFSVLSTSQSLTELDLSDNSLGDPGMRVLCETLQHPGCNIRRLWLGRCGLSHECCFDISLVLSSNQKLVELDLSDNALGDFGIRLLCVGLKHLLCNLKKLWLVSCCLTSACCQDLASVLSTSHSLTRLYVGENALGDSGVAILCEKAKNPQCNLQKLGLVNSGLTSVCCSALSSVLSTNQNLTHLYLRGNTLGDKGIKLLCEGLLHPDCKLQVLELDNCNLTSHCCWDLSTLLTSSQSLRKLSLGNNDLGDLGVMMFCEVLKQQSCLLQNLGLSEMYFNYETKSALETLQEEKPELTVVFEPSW

Take `O=C(Nc1c2c(cc3c1CCC3)CCC2)NS(=O)(=O)c1ccn(Cc2ncccn2)n1` [Example 1, N-((1,2,3,5,6,7-Hexahydro-s-indacen-4-yl)carbamoyl)-1-(pyrimidin-2-ylmethyl)-1H-pyrazole-3-sulfonamide]: in assay [1], the IC50 is 640 to 2560 nM. With `O=C(Nc1c2c(cc3c1CCC3)CCC2)NS(=O)(=O)c1ccn(Cc2ncco2)n1` [Example 2, N-((1,2,3,5,6,7-Hexahydro-s-indacen-4-yl)carbamoyl)-1-(oxazol-2-ylmethyl)-1H-pyrazole-3-sulfonamide], the concentration for half-maximal inhibition (IC50) in assay [2] was 3200 to 10000 nM; in assay [1] it was 40 to 160 nM.

On to `Cn1ccnc1Cn1ccc(S(=O)(=O)NC(=O)Nc2c3c(cc4c2CCC4)CCC3)n1` [Example 3, N-((1,2,3,5,6,7-Hexahydro-s-indacen-4-yl)carbamoyl)-1-((1-methyl-1H-imidazol-2-yl)methyl)-H-pyrazole-3-sulfonamide], for which, in assay [2], the half-maximal inhibitory concentration (IC50) fell in the range of 400 to 800 nM. Regarding `O=C(Nc1c2c(cc3c1CCC3)CCC2)NS(=O)(=O)c1ccn(-c2ccccn2)n1` [Example 4, N-((1,2,3,5,6,7-Hexahydro-s-indacen-4-yl)carbamoyl)-1-(pyridin-2-yl)-1H-pyrazole-3-sulfonamide], in assay [1], the half-maximal inhibitory concentration (IC50) was in the range of 640 to 2560 nM. `O=C(Nc1c2c(cc3c1CCC3)CCC2)NS(=O)(=O)c1ccn(-c2nccs2)n1` [Example 5, N-((1,2,3,5,6,7-Hexahydro-s-indacen-4-yl)carbamoyl)-1-(thiazol-2-yl)-1H-pyrazole-3-sulfonamide]: the IC50 in assay [1] was in the range of 640 to 2560 nM.

On to `O=C(Nc1c2c(cc3c1CCC3)CCC2)NS(=O)(=O)c1ccn(-c2cccnc2)n1` [Example 6, N-((1,2,3,5,6,7-Hexahydro-s-indacen-4-yl)carbamoyl)-1-(pyridin-3-yl)-1H-pyrazole-3-sulfonamide], for which the IC50 in assay [1] lay in the range of 640 to 2560 nM. Consider `CN(Cc1nccs1)C(=O)c1cc(S(=O)(=O)NC(=O)Nc2c3c(cc4c2CCC4)CCC3)nn1C` [Example 7, 3-(N-((1,2,3,5,6,7-Hexahydro-s-indacen-4-yl)carbamoyl)sulfamoyl)-N,1-dimethyl-N-(thiazol-2-ylmethyl)-1H-pyrazole-5-carboxamide], for which the figures for the IC50 in assay [2] and in assay [1] were 1600 to 3200 nM and 160 to 640 nM, respectively. Regarding `CN(Cc1nccn1C)C(=O)c1cc(S(=O)(=O)NC(=O)Nc2c3c(cc4c2CCC4)CCC3)nn1C` [Example 8, 3-(N-((1,2,3,5,6,7-Hexahydro-s-indacen-4-yl)carbamoyl)sulfamoyl)-N,1-dimethyl-N-((1-methyl-1H-imidazol-2-yl)methyl)-1H-pyrazole-5-carboxamide], the IC50 in assay [2] was 800 to 1600 nM; in assay [1], 40 to 160 nM.

On to `CN(C(=O)c1cc(S(=O)(=O)NC(=O)Nc2c3c(cc4c2CCC4)CCC3)nn1C)c1nccs1` [Example 9, 3-(N-((1,2,3,5,6,7-Hexahydro-s-indacen-4-yl)carbamoyl)sulfamoyl)-N,1-dimethyl-N-(thiazol-2-yl)-1H-pyrazole-5-carboxamide], for which the IC50 in assay [1] fell in the range of 160 to 640 nM. The same measure, in the same setting: the result for `CN(Cc1ccnn1C)C(=O)c1cc(S(=O)(=O)NC(=O)Nc2c3c(cc4c2CCC4)CCC3)nn1C` [Example 10, 3-(N-((1,2,3,5,6,7-Hexahydro-s-indacen-4-yl)carbamoyl)sulfamoyl)-N,1-dimethyl-N-((1-methyl-1H-pyrazol-5-yl)methyl)-1H-pyrazole-5-carboxamide] reads 640 to 2560 nM.
